From ChEMBL document CHEMBL4219142, “Discovery of potent DOT1L inhibitors by AlphaLISA based High Throughput Screening assay” (Bioorg Med Chem, 2018)

Tests used:
[1] = tested on: MV4-11; assay: Cell cycle arrest in human MV411 cells assessed as accumulation at S phase at 1.25 uM after 24 hrs by propidium iodide staining based flow cytometric analysis (reference value: 30.25 to 47.5%); type: functional
[2] = tested on: MV4-11; assay: Cell cycle arrest in human MV411 cells assessed as accumulation at G1 phase at 0.3125 uM after 24 hrs by propidium iodide staining based flow cytometric analysis (reference value: 40.62 to 65.56%); type: functional
[3] = molecular target: T1, Histone-lysine N-methyltransferase, H3 lysine-79 specific (Homo sapiens, UniProt Q8TEK3); assay: (§1) Inhibition of recombinant human His6-SUMO tagged DOT1L (1 to 416 residues) expressed in Escherichia coli BL21(DE3) at 25 uM using oligonucleosome as substrate pretreated for 15 mins followed by substrate addition measured after 60 mins in presence of [3H]SAM by liquid scintillation counting method relative to control
Target sequence in this assay (Q8TEK3 whole entry, looked up, the tested form may be a part): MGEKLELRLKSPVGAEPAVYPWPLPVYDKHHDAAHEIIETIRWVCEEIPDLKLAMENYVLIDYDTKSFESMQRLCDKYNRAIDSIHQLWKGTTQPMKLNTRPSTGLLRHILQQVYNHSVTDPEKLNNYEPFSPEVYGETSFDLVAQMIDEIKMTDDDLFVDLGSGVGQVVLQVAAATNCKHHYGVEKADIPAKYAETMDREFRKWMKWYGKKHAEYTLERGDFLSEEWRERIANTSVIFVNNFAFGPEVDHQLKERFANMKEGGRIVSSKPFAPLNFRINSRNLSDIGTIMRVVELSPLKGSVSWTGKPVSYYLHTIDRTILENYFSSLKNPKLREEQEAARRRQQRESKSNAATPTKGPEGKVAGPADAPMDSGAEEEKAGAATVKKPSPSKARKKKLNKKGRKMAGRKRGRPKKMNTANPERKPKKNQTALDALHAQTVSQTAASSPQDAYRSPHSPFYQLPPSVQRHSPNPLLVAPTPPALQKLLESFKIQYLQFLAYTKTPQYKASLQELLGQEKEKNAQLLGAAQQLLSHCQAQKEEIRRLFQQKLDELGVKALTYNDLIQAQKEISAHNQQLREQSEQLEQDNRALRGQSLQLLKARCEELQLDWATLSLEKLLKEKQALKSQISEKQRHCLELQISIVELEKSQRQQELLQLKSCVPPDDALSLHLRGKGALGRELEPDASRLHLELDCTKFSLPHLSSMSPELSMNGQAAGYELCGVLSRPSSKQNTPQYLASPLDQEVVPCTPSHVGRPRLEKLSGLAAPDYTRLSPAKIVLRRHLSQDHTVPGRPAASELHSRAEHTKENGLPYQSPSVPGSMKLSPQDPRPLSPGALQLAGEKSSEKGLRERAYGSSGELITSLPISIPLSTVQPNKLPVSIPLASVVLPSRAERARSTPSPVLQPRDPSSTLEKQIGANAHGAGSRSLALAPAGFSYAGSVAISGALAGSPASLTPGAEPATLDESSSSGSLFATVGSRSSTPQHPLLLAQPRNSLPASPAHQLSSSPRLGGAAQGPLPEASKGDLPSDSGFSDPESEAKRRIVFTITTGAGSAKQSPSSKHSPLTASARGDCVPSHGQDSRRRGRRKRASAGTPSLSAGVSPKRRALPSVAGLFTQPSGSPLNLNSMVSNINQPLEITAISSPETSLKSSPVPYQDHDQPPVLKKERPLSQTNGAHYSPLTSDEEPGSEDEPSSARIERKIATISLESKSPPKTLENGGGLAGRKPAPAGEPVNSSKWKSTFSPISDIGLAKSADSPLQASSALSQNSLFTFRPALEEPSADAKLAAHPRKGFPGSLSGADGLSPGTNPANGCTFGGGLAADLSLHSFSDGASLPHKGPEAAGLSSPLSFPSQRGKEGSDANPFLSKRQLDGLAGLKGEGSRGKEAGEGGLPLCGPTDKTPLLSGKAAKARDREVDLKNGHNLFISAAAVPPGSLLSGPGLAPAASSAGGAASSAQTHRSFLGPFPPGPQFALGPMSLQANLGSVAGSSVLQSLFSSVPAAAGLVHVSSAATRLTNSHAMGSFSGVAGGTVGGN

[4] = tested on: MV4-11; assay: Induction of apoptosis in human MV411 cells assessed as viable cells at 1.25 uM after 48 hrs by Annexin-V-FITC/propidium iodide staining based flow cytometric method (reference value: 88.5 to 94.5%); type: functional; settings: MV4-11, 48 h, read-out: Activity
[5] = tested on: MV4-11; assay: Cell cycle arrest in human MV411 cells assessed as accumulation at S phase at 0.625 uM after 24 hrs by propidium iodide staining based flow cytometric analysis (reference value: 30.25 to 47.5%); type: functional
[6] = molecular target: T1, Histone-lysine N-methyltransferase, H3 lysine-79 specific; assay: as §1, with “100” for “25”
Target sequence in this assay (Q8TEK3 whole entry, looked up, the tested form may be a part): as above

[7] = tested on: MV4-11; assay: Cell cycle arrest in human MV411 cells assessed as accumulation at G1 phase at 1.25 uM after 24 hrs by propidium iodide staining based flow cytometric analysis (reference value: 40.62 to 65.56%); type: functional
[8] = tested on: MV4-11; assay: Induction of apoptosis in human MV411 cells assessed as late apoptotic cells at 0.3125 uM after 48 hrs by Annexin-V-FITC/propidium iodide staining based flow cytometric method (reference value: 4.38 to 4.63%); type: functional
[9] = tested on: MV4-11; assay: Induction of apoptosis in human MV411 cells assessed as necrotic cells at 0.3125 uM after 48 hrs by Annexin-V-FITC/propidium iodide staining based flow cytometric method (Rvb <= 0.08%); type: functional
[10] = tested on: MV4-11; assay: Induction of apoptosis in human MV411 cells assessed as necrotic cells at 0.625 uM after 48 hrs by Annexin-V-FITC/propidium iodide staining based flow cytometric method (Rvb <= 0.08%); type: functional
[11] = molecular target: T1, Histone-lysine N-methyltransferase, H3 lysine-79 specific; assay: as §1, with “50” for “25”
Target sequence in this assay (Q8TEK3 whole entry, looked up, the tested form may be a part): as above

[12] = tested on: MV4-11; assay: Induction of apoptosis in human MV411 cells assessed as late apoptotic cells at 0.625 uM after 48 hrs by Annexin-V-FITC/propidium iodide staining based flow cytometric method (reference value: 4.38 to 4.63%); type: functional
[13] = tested on: MV4-11; assay: Induction of apoptosis in human MV411 cells assessed as early apoptotic cells at 1.25 uM after 48 hrs by Annexin-V-FITC/propidium iodide staining based flow cytometric method (reference value: 1.15 to […]); type: functional
[14] = tested on: MV4-11; assay: Induction of apoptosis in human MV411 cells assessed as early apoptotic cells at 0.625 uM after 48 hrs by Annexin-V-FITC/propidium iodide staining based flow cytometric method (reference value: 1.15 to […]); type: functional
[15] = tested on: MV4-11; assay: Induction of apoptosis in human MV411 cells assessed as viable cells at 0.3125 uM after 48 hrs by Annexin-V-FITC/propidium iodide staining based flow cytometric method (reference value: 88.5 to 94.5%); type: functional; settings: MV4-11, 48 h, read-out: Activity
[16] = tested on: MV4-11; assay: Cell cycle arrest in human MV411 cells assessed as accumulation at G2 phase at 1.25 uM after 24 hrs by propidium iodide staining based flow cytometric analysis (reference value: 4.19 to 11.88%); type: functional
[17] = tested on: MV4-11; assay: Cell cycle arrest in human MV411 cells assessed as accumulation at G1 phase after 24 hrs by propidium iodide staining based flow cytometric analysis; type: functional
[18] = tested on: MV4-11; assay: Induction of apoptosis in human MV411 cells assessed as viable cells at 0.625 uM after 48 hrs by Annexin-V-FITC/propidium iodide staining based flow cytometric method (reference value: 88.5 to 94.5%); type: functional; settings: MV4-11, 48 h, read-out: Activity
[19] = tested on: MV4-11; assay: Induction of apoptosis in human MV411 cells assessed as late apoptotic cells at 1.25 uM after 48 hrs by Annexin-V-FITC/propidium iodide staining based flow cytometric method (reference value: 4.38 to 4.63%); type: functional
[20] = tested on: MV4-11; assay: Cell cycle arrest in human MV411 cells assessed as accumulation at S phase at 0.3125 uM after 24 hrs by propidium iodide staining based flow cytometric analysis (reference value: 30.25 to 47.5%); type: functional
[21] = molecular target: T1, Histone-lysine N-methyltransferase, H3 lysine-79 specific; assay: Inhibition of recombinant human His6-SUMO tagged DOT1L (1 to 416 residues) expressed in Escherichia coli BL21(DE3) using oligonucleosome as substrate pretreated for 15 mins followed by substrate addition measured after 60 mins in presence of [3H]SAM by liquid scintillation counting method
Target sequence in this assay (Q8TEK3 whole entry, the tested form may be a part): as the sequence (Q8TEK3 whole entry, looked up, the tested form may be a part) above

[22] = tested on: MV4-11; assay: Cell cycle arrest in human MV411 cells assessed as accumulation at G2 phase at 0.625 uM after 24 hrs by propidium iodide staining based flow cytometric analysis (reference value: 4.19 to 11.88%); type: functional
[23] = molecular target: T1, Histone-lysine N-methyltransferase, H3 lysine-79 specific; assay: Binding affinity to recombinant human His6-SUMO tagged DOT1L (1 to 416 residues) expressed in Escherichia coli BL21(DE3) by surface plasmon resonance method
Target sequence in this assay (Q8TEK3 whole entry, the tested form may be a part): as the sequence (Q8TEK3 whole entry, looked up, the tested form may be a part) above

[24] = tested on: MV4-11; assay: Cell cycle arrest in human MV411 cells assessed as accumulation at G2 phase at 0.3125 uM after 24 hrs by propidium iodide staining based flow cytometric analysis (reference value: 4.19 to 11.88%); type: functional
[25] = tested on: MV4-11; assay: Induction of apoptosis in human MV411 cells assessed as early apoptotic cells at 0.3125 uM after 48 hrs by Annexin-V-FITC/propidium iodide staining based flow cytometric method (reference value: 1.15 to […]); type: functional
[26] = tested on: MV4-11; assay: Induction of apoptosis in human MV411 cells assessed as necrotic cells at 1.25 uM after 48 hrs by Annexin-V-FITC/propidium iodide staining based flow cytometric method (Rvb <= 0.08%); type: functional
[27] = tested on: MV4-11; assay: Antiproliferative activity against human MV411 cells after 72 hrs by Alamar blue assay; type: functional, cell-based; settings: MV4-11, 72 h
[28] = tested on: MV4-11; assay: Cell cycle arrest in human MV411 cells assessed as accumulation at G1 phase at 0.625 uM after 24 hrs by propidium iodide staining based flow cytometric analysis (reference value: 40.62 to 65.56%); type: functional

COc1ccccc1-c1nnc2sc(/C=C/c3ccco3)nn12
Activity [1]: 18.51%
Activity [2]: 46.31%
inhibition [3]: 62%
viability at 1.25 µM [4]: 9.46%
Activity [5]: 32.19%
inhibition [6]: 78%
Activity [7]: 58.01%
Activity [8]: 12%
Activity [9]: 0.72%
Activity [10]: 1.11%
inhibition [11]: 75%
Activity [12]: 35.3%
Activity [13]: 44.1%
Activity [14]: 33.2%
viability at 0.3125 µM [15]: 73.6%
Activity [16]: 23.18%
Activity [17]: Dose-dependent effect
viability at 0.625 µM [18]: 30.4%
Activity [19]: 45.5%
Activity [20]: 37.51%
IC50 [21]: 9.7 µM
Activity [22]: 10.59%
Kd [23]: 7.08 µM
Activity [24]: 16.17%
Activity [25]: 13.7%
Activity [26]: 0.91%
IC50 [27]: 1.07 µM
Activity [28]: 57.22%
